Laboratory results from the NIST ThermoML archive (doi:10.1007/s10765-012-1233-x).
± gives the expanded uncertainty stated by the source.

Conditions: Liquid; for viscosity: Falling or rolling sphere viscometry; for mass density: Vibrating tube method; for thermal conductivity: Hot wire method

CCCCCCn1cc[n+](C)c1.F[B-](F)(F)F [1-hexyl-3-methylimidazolium tetrafluoroborate]
Conditions | mass density [kg/m3] | thermal conductivity [W/m/K] | viscosity [mPa·s]
293.15 K, 100 kPa | 1148.6 ± 3.3 | – | 286 ± 17
293.15 K, 5000 kPa | 1151.2 ± 3.3 | – | 302 ± 19
293.15 K, 10000 kPa | 1153.5 ± 3.3 | – | 318 ± 20
293.15 K, 15000 kPa | 1155.8 ± 3.4 | – | 345 ± 23
293.15 K, 20000 kPa | 1158.2 ± 3.4 | – | 372 ± 26
294.2 K, 100 kPa | – | 0.166 ± 0.004 | –
294.2 K, 10000 kPa | – | 0.168 ± 0.004 | –
294.2 K, 20000 kPa | – | 0.17 ± 0.004 | –
313.15 K, 100 kPa | 1134.1 ± 3.2 | – | 92.9 ± 3.2
313.15 K, 5000 kPa | 1136.7 ± 3.2 | – | 98.7 ± 3
313.15 K, 10000 kPa | 1139.4 ± 3.3 | – | 104 ± 3
313.15 K, 15000 kPa | 1141.8 ± 3.3 | – | 109 ± 4
313.15 K, 20000 kPa | 1144.2 ± 3.3 | – | 115 ± 5
314.3 K, 100 kPa | – | 0.165 ± 0.004 | –
314.3 K, 10000 kPa | – | 0.168 ± 0.004 | –
314.3 K, 20000 kPa | – | 0.169 ± 0.004 | –
333.15 K, 100 kPa | 1120.5 ± 3.1 | – | 40.4 ± 1
333.15 K, 5000 kPa | 1123.1 ± 3.2 | – | 42.5 ± 1
333.15 K, 10000 kPa | 1125.8 ± 3.2 | – | 44.4 ± 1
333.15 K, 15000 kPa | 1128.5 ± 3.2 | – | 45.5 ± 1.1
333.15 K, 20000 kPa | 1131.1 ± 3.3 | – | 48.2 ± 1.3
334.4 K, 100 kPa | – | 0.164 ± 0.004 | –
334.4 K, 10000 kPa | – | 0.167 ± 0.004 | –
334.4 K, 20000 kPa | – | 0.169 ± 0.004 | –
353.15 K, 100 kPa | 1107.1 ± 3.1 | – | 21.2 ± 0.5
353.15 K, 5000 kPa | 1109.9 ± 3.1 | – | 22.3 ± 0.5
353.15 K, 10000 kPa | 1112.7 ± 3.1 | – | 22.7 ± 0.5
353.15 K, 15000 kPa | 1115.5 ± 3.2 | – | 23.9 ± 0.6
353.15 K, 20000 kPa | 1118.3 ± 3.2 | – | 24.3 ± 0.6

CCCCCCCC[n+]1ccn(C)c1.F[B-](F)(F)F [1-methyl-3-octylimidazolium tetrafluoroborate]
Conditions | mass density [kg/m3] | thermal conductivity [W/m/K] | viscosity [mPa·s]
293.15 K, 100 kPa | 1107.1 ± 3.1 | – | 472 ± 36
293.15 K, 5000 kPa | 1109.7 ± 3.1 | – | 510 ± 41
293.15 K, 10000 kPa | 1112.2 ± 3.1 | – | 537 ± 44
293.15 K, 15000 kPa | 1114.6 ± 3.2 | – | 572 ± 48
293.15 K, 20000 kPa | 1117 ± 3.2 | – | 649 ± 57
294.2 K, 100 kPa | – | 0.164 ± 0.004 | –
294.2 K, 10000 kPa | – | 0.165 ± 0.004 | –
294.2 K, 20000 kPa | – | 0.167 ± 0.004 | –
313.15 K, 100 kPa | 1093.5 ± 3 | – | 146 ± 6
313.15 K, 5000 kPa | 1096.1 ± 3 | – | 157 ± 7
313.15 K, 10000 kPa | 1098.8 ± 3.1 | – | 166 ± 7
313.15 K, 15000 kPa | 1101.4 ± 3.1 | – | 175 ± 8
313.15 K, 20000 kPa | 1103.9 ± 3.1 | – | 188 ± 10
314.3 K, 100 kPa | – | 0.163 ± 0.004 | –
314.3 K, 10000 kPa | – | 0.164 ± 0.004 | –
314.3 K, 20000 kPa | – | 0.166 ± 0.004 | –
333.15 K, 100 kPa | 1079.8 ± 3 | – | 58 ± 1.5
333.15 K, 5000 kPa | 1082.6 ± 3 | – | 60.6 ± 1.4
333.15 K, 10000 kPa | 1085.4 ± 3 | – | 63.6 ± 1.5
333.15 K, 15000 kPa | 1088.1 ± 3 | – | 66.4 ± 1.6
333.15 K, 20000 kPa | 1090.8 ± 3.1 | – | 69.8 ± 2.1
334.4 K, 100 kPa | – | 0.16 ± 0.004 | –
334.4 K, 10000 kPa | – | 0.162 ± 0.004 | –
334.4 K, 20000 kPa | – | 0.164 ± 0.004 | –
353.15 K, 100 kPa | 1066.8 ± 2.9 | – | 28.1 ± 0.7
353.15 K, 5000 kPa | 1069.7 ± 2.9 | – | 29.8 ± 0.7
353.15 K, 10000 kPa | 1072.7 ± 3 | – | 30.8 ± 0.7
353.15 K, 15000 kPa | 1075.5 ± 3 | – | 32.1 ± 0.7
353.15 K, 20000 kPa | 1078.3 ± 3 | – | 33.4 ± 0.8
